Holding throughout (assay type): biochemical
One experiment concerns the target ALK (Homo sapiens (Human), UniProt Q9UM73). The experiment is described as follows: HotSpot radiometric kinase assay, inhibition of ALK kinase activity. The following applies: 10 μM ATP. How it is done: Briefly, specific kinase/substrate pairs along with required cofactors were prepared in reaction buffer; 20 mM Hepes pH 7.5, 10 mM […], 1 mM EGTA, 0.02% Brij35, 0.02 mg/ml BSA, 0.1 mM Na3VO4, 2 mM DTT, 1% DMSO. Compounds were delivered into the reaction, followed […] later by addition of a mixture of ATP (Sigma, St. Louis MO) and ^33P ATP (Perkin Elmer, Waltham MA) to a final concentration of 10 μM. Reactions were carried out at room temperature for 120 min, followed by spotting of the reactions onto P81 ion exchange filter paper (Whatman Inc., Piscataway, NJ). Unbound phosphate was removed by extensive washing of filters in 0.75% phosphoric acid. […] IC50 values and curve fits were obtained using Prism (GraphPad Software).

A further experiment has as its target CLK1 (Homo sapiens (Human), UniProt P49759). Put plainly: Inhibition of CLK1 kinase activity evaluated at Nanosyn (ADP-Glo). The conditions noted are these: ADP-Glo luminescence. In short, it runs like this:
(§1)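 Percent inhibition derived from luminescent ADP detection (ADP-Glo), normalised to DMSO-only and enzyme-free wells. Reactions ran in HEPES pH 7.5 buffer with Mg2+, Triton X-100 and BSA, 1% DMSO, ATP-initiated, for an assay-specific time.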

Another experiment concerns the target CLK2 (Homo sapiens (Human), UniProt P49760). Put plainly: Inhibition of CLK2 kinase activity evaluated at Nanosyn (ADP-Glo). The conditions noted are these: ADP-Glo luminescence. In short, it runs like this: as §1
In a further experiment the target is CLK3 (Homo sapiens (Human), UniProt P49761). Put plainly: Inhibition of CLK3 kinase activity evaluated at Nanosyn (ADP-Glo). The following applies: ADP-Glo luminescence. In short, it runs like this:
as §1

A further experiment addresses CLK4 (Homo sapiens (Human), UniProt Q9HAZ1). Put plainly: Inhibition of CLK4 kinase activity evaluated at Nanosyn (ADP-Glo). The following applies: ADP-Glo luminescence. In short, it runs like this: as §1
In another experiment the target is EGFR WT (Homo sapiens (Human), UniProt P00533). Put plainly: HotSpot radiometric kinase assay (Reaction Biology), EGFR WT. The following applies: 10 μM ATP. The method, boiled down: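 IC50 values come from curve fits of ^33P incorporation captured on P81 filters after acid washing. Kinase reactions ran 120 min at room temperature with 10 μM ATP, added about 20 min after compound. Buffer was Hepes pH 7.5 containing Mg, DTT and 1% DMSO.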

The target in the next experiment is EGFR (D770_N771insNPG) (Homo sapiens (Human), UniProt P00533, INS770NPG). The experiment is described as follows: HotSpot radiometric kinase assay, EGFR (D770_N771insNPG). The conditions noted are these: 10 μM ATP, read-out: EGFR (Δ770_N771insNPG) IC50. In short, it runs like this: (§2)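 Radiometric filter-binding assay with EGFR mutant kinase/substrate pairs in 20 mM Hepes pH 7.5 with Mg, EGTA, Brij35, BSA, Na3VO4, DTT, 1% DMSO. Compound preincubated ~20 min, then ATP/^33P-ATP added at 10 μM final. Reaction 120 min at room temperature, spotted on P81 paper; IC50 from curve fits.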

Another experiment concerns the target EGFR Δ746-750 mutant (Homo sapiens (Human), UniProt P00533, DEL746-750). The experiment is described as follows: HotSpot radiometric kinase assay, EGFR Δ746-750 mutant. The following applies: 10 μM ATP. In short, it runs like this: as §2
In experiment [1] the target is EGFR Δ746-750/C797S mutant (Homo sapiens (Human), UniProt P00533, C797S/DEL746-750). The experiment is described as follows: HotSpot radiometric kinase assay, EGFR Δ746-750/C797S mutant. The following applies: 10 μM ATP. The method, boiled down: as §2
The next experiment deals with EGFR L858R mutant (Homo sapiens (Human), UniProt P00533, L858R). Put plainly: HotSpot radiometric kinase assay, EGFR L858R mutant. The conditions noted are these: 10 μM ATP. In short, it runs like this:
as §2

A further experiment concerns the target EGFR L858R/T790M mutant (Homo sapiens (Human), UniProt P00533, L858R/T790M). The experiment is described as follows: HotSpot radiometric kinase assay, EGFR L858R/T790M mutant. The following applies: 10 μM ATP. The method, boiled down: as §2
Experiment [2] addresses EGFR L858R/T790M/C797S mutant (Homo sapiens (Human), UniProt P00533, C797S/L858R/T790M). Put plainly: HotSpot radiometric kinase assay, EGFR L858R/T790M/C797S mutant. The conditions noted are these: 10 μM ATP. The method, boiled down: as §2

Sequence of EGFR WT (P00533 25-1210): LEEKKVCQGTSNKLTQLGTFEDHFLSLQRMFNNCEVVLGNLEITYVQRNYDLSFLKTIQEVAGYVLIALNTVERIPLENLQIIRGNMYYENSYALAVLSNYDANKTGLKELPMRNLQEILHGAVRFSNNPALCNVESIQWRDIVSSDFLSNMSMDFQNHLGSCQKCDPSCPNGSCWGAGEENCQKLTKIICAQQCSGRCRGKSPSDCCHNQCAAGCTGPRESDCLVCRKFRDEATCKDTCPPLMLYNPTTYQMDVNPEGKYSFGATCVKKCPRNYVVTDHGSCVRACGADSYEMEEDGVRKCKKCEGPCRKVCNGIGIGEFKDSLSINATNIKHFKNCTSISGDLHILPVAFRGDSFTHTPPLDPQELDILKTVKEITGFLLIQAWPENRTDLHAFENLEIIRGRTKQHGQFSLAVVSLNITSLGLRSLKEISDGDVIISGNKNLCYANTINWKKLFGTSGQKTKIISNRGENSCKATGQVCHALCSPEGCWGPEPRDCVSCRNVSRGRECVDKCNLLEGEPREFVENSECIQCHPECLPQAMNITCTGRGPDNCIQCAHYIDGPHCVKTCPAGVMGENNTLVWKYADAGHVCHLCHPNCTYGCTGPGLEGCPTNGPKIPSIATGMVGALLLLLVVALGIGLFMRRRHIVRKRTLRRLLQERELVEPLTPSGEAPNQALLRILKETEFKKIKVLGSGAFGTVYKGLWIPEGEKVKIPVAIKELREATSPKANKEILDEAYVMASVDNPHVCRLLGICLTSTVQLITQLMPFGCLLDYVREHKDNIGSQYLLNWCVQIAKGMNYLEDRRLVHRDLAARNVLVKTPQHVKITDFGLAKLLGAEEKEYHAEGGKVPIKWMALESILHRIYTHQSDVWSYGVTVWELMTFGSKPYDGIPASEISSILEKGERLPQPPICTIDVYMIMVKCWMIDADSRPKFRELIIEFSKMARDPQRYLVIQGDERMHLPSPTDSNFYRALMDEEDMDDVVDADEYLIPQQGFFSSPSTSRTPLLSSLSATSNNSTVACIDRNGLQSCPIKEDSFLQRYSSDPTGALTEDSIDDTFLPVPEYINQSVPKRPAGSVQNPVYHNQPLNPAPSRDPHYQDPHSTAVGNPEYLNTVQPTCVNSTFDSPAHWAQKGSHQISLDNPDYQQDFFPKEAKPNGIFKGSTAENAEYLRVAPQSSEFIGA
Sequence of EGFR L858R/T790M/C797S mutant (P00533 25-1210 T790M/C797S/L858R): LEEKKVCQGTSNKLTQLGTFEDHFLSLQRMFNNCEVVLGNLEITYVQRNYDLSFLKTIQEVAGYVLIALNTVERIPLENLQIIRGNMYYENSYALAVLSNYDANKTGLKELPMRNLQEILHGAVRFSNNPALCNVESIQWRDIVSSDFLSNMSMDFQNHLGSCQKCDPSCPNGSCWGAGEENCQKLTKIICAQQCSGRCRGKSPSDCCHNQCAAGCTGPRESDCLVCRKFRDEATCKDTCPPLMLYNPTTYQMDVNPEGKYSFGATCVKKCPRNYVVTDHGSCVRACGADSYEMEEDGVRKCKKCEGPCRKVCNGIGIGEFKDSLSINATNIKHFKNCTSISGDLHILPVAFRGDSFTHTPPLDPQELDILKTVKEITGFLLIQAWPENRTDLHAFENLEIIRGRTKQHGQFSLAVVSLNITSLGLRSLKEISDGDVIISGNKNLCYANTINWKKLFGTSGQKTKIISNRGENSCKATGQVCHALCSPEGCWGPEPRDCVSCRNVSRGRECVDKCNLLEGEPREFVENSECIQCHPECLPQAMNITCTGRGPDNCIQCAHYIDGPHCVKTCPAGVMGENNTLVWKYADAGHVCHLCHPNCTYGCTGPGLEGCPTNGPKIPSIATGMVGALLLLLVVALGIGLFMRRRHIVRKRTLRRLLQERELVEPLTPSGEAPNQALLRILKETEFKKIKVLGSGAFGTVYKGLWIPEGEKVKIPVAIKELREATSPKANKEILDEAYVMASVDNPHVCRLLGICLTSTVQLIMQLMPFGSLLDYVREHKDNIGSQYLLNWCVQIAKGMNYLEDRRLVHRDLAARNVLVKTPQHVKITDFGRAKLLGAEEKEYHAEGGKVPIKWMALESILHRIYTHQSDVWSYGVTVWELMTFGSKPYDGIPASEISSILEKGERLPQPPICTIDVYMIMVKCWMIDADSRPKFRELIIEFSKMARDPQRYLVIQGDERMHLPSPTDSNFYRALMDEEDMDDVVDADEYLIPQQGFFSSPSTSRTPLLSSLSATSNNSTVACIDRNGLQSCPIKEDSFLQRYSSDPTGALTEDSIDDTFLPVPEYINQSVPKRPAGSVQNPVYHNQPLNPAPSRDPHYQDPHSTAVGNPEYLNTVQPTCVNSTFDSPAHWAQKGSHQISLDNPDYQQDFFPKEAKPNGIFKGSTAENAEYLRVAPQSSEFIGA
Sequence of CLK4 (Q9HAZ1 whole entry): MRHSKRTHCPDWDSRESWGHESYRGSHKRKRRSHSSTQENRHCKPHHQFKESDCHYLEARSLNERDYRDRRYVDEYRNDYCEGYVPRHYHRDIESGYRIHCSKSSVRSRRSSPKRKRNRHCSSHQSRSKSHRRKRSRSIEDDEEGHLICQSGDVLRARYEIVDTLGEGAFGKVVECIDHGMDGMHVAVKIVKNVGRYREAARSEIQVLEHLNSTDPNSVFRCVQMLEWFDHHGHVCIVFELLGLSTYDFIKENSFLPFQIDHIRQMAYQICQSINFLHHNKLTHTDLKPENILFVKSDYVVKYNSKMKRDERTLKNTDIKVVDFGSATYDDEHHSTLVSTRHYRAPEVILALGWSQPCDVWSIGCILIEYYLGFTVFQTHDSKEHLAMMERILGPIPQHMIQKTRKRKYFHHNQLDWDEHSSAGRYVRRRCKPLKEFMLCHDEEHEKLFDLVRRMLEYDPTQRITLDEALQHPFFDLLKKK
Sequence of CLK1 (P49759 whole entry): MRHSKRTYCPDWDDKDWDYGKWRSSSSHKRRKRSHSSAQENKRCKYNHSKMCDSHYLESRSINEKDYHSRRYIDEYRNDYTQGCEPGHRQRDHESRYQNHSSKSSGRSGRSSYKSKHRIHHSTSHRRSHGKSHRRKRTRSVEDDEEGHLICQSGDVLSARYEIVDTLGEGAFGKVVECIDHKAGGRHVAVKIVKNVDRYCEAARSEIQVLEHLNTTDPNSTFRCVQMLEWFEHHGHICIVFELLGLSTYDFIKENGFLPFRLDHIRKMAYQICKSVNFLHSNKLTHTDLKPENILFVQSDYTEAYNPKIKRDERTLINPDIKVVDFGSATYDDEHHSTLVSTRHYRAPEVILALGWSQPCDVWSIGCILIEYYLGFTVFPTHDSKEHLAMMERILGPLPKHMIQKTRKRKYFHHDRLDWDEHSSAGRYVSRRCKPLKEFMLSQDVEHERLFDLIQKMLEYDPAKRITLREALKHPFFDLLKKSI
Sequence of EGFR L858R mutant (P00533 25-1210 L858R): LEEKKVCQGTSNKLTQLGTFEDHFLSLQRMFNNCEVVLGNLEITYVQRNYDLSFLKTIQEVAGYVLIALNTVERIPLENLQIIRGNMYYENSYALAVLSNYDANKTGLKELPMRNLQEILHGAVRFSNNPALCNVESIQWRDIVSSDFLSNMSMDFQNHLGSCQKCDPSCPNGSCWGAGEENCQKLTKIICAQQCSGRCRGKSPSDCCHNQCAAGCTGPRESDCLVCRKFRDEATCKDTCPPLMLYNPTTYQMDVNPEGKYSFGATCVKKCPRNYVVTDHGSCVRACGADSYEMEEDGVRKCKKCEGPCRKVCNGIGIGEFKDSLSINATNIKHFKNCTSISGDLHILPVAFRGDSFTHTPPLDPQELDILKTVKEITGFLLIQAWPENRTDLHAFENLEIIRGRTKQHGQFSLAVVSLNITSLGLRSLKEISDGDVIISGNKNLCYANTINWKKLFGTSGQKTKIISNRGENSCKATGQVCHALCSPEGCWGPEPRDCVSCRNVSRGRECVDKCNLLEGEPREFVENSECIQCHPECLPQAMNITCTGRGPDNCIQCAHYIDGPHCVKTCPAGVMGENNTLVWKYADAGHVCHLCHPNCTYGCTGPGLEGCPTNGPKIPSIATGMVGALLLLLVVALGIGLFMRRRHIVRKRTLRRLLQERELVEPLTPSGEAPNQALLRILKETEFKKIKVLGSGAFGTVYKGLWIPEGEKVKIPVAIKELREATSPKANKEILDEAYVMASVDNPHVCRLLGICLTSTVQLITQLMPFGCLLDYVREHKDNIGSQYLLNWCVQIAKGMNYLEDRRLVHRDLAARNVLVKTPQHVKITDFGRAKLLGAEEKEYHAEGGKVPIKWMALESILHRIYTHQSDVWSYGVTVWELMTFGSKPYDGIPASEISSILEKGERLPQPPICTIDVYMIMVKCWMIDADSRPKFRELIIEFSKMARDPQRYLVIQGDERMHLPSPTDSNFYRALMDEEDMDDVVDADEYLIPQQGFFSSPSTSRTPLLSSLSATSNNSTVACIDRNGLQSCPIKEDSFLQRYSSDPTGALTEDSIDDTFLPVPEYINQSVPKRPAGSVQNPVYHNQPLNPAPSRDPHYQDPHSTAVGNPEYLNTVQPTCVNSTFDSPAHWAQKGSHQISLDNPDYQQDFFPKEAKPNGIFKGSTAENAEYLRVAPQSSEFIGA
Sequence of EGFR Δ746-750/C797S mutant (P00533 other isoform, or with tags, fused parts or gaps C797S/del 1-668/del 746-750 limits assumed): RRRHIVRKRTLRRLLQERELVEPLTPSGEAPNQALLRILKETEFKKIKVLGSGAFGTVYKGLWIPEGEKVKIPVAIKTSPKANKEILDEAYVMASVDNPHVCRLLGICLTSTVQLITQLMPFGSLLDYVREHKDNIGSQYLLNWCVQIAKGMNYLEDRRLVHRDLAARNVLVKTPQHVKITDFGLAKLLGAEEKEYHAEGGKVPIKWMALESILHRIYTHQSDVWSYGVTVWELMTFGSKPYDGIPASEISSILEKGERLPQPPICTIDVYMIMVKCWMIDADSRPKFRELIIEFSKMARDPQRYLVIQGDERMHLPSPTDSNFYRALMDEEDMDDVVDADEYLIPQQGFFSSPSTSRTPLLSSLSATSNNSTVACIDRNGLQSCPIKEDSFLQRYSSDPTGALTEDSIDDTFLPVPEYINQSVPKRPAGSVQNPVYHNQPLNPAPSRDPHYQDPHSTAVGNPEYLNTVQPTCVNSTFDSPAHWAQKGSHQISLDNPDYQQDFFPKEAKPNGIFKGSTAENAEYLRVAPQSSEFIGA

For `CC(C)Oc1nn(CCO)c2c1/C=C/c1n[nH]c3ccc(cc13)-c1cnn(C)c1O[C@@H](C(F)F)CN(C)C2` (single isomer, unassigned) [Ex. 275], the IC50 against ALK came out at 1.46 nM; on CLK1, 0.8 nM; on CLK2 it was 1.03 nM; on CLK3, 241 nM; at CLK4 it was 2.25 nM.
The like results for `CC(C)Oc1nn(CCO)c2c1/C=C/c1n[nH]c3cc(F)c(cc13)-c1cnn(C)c1O[C@@H](C)[C@H]1CCCN1C2` (single isomer, unassigned) [Example 256] were, in that order, 2 nM, 1.38 nM, 1.35 nM, 94.5 nM and 4.05 nM.
On to `Cc1nn(CCO)c2c1/C=C/c1n[nH]c3ccc(cc13)-c1cnn(C)c1OCCCO2` [Ex. 22, 2-[(17E)-8,16-dimethyl-2,8,11,12-tetrahydro-10H,14H-3,5-etheno[1,5]dioxacyclopentadecino[10,11-c:15,14-c′:6,7-c″]tripyrazol-14-yl]ethan-1-ol], for which the IC50 amounted to 158 nM against EGFR WT; 94.8 nM on EGFR (D770_N771insNPG); 3.84 nM at EGFR Δ746-750 mutant; 5.1 nM in experiment [1]; 4.49 nM against EGFR L858R mutant; 1.87 nM at EGFR L858R/T790M mutant. Further, the 50% inhibitory concentration (IC50) came out at 0.54 nM in experiment [2] and 1.35 nM against ALK.
On to `Cc1nn(C)c2c1/C=C/c1n[nH]c3ccc(cc13)-c1cnn(C)c1O[C@@H](C)CCO2` [Ex. 35, (10S,17E)-8,10,14,16-tetramethyl-2,11,12,14-tetrahydro-8H,10H-3,5-etheno[1,5]dioxacyclopentadecino[10,11-c:15,14-c′:6,7-c″ ]tripyrazole], for which the IC50 on EGFR WT was determined as 584 nM; on EGFR (D770_N771insNPG), 1040 nM; against EGFR Δ746-750 mutant it was 101 nM; in experiment [1], 99.6 nM; against EGFR L858R mutant, 135 nM; in [2] it was 30.9 nM. For the same compound, the IC50 on ALK was 6.93 nM.
As to `CCOc1nn(CCO)c2c1/C=C/c1n[nH]c3cc(F)c(cc13)-c1cnn(C)c1O[C@H](C)CN(CC)C2` [Ex. 277, 2-[(10R,17E)-16-ethoxy-12-ethyl-19-fluoro-8,10-dimethyl-2,8,10,11,12,13-hexahydro-14H-3,5-ethenotripyrazolo[3,4-f:3′,4′-j:4″,3″-n][1,4]oxazacyclopentadecin-14-yl]ethan-1-ol], the IC50 was 9.87 nM on ALK; 4.28 nM at CLK1; 2.99 nM on CLK2; 51.1 nM on CLK3; 2.77 nM at CLK4.
On to `CCN1Cc2c(c(OC(C)C)nn2C[C@H](C)O)/C=C/c2n[nH]c3ccc(cc23)-c2cnn(C)c2O[C@@H](C)C1` [Ex. 280, (2S)-1-{(10S,17E)-12-ethyl-8,10-dimethyl-16-[(propan-2-yl)oxy]-2,8,10,11,12,13-hexahydro-14H-3,5-ethenotripyrazolo[3,4-f:3′,4′-j:4″,3″-n][1,4]oxazacyclopentadecin-14-yl}propan-2-ol], for which the IC50 is 1.08 nM at ALK; 0.52 nM at CLK1; 0.24 nM at CLK2; 242 nM at CLK3; 1.96 nM on CLK4.
For the compound `Cc1c2c(nn1C)CN(C)C[C@H](C)Oc1c(cnn1C)-c1ccc3[nH]nc(c3c1)/C=C/2` [Example 58, (10S,17E)-8,10,12,15,16-pentamethyl-2,10,11,12,13,15-hexahydro-8H-3,5-ethenotripyrazolo[3,4-f:3′,4′-j:4″,3″- n][1,4]oxazacyclopentadecine], the IC50 against EGFR WT worked out at 49.2 nM; at EGFR (D770_N771insNPG) it was 222 nM; against EGFR Δ746-750 mutant, 11.1 nM; in experiment [1] it was 7.29 nM; on EGFR L858R mutant it was 9.29 nM; in experiment [2], 1.57 nM. The IC50 against ALK amounted to 4.79 nM; at CLK1 it was 0.2 nM; on CLK2, 0.38 nM; at CLK3, 160 nM; at CLK4, 0.53 nM.
For the compound `CCOc1nn(CCO)c2c1/C=C/c1n[nH]c3cc(F)c(cc13)-c1cnn(C)c1O[C@@H](C)CN(CC)C2` [Example 288, 2-[(10S,17E)-16-ethoxy-12-ethyl-19-fluoro-8,10-dimethyl-2,8,10,11,12,13-hexahydro-14H-3,5-ethenotripyrazolo[3,4-f:3′,4′-j:4″,3″- n][1,4]oxazacyclopentadecin-14-yl]ethan-1-ol], the IC50 against ALK amounted to 1.82 nM; at CLK1 it was 0.32 nM; at CLK2 it was 0.24 nM; at CLK3 it was 131 nM; on CLK4, 1.31 nM.
Taken in the same sequence, the figures for `CCc1nn(C)c2c1/C=C/c1n[nH]c3ccc(cc13)-c1cnn(C)c1OCCOC2` [Example 300, (17E)-16-ethyl-8,14-dimethyl-2,8,10,11,13,14-hexahydro-3,5-etheno[1,4]dioxacyclopentadecino[10,11-c:15,14-c′:6,7-c″]tripyrazole] were 5.79 nM, 0.332 nM, 36.5 nM, 0.862 nM and 0.225 nM.
Taken in the same sequence, the figures for `Cn1nc(C#N)c2c1COCCOc1c(cnn1C)-c1ccc3[nH]nc(c3c1)/C=C/2` [Example 302, (17E)-8,14-dimethyl-2,8,10,11,13,14-hexahydro-3,5-etheno[1,4]dioxacyclopentadecino[10,11-c:15,14-c′:6,7-c″]tripyrazole-16-carbonitrile] were 19.9 nM, 1.19 nM, 1000 nM, 1.23 nM and 1.33 nM.
In the case of `CCc1nn(C)c2c1/C=C/c1n[nH]c3ccc(cc13)-c1cnn(C)c1O[C@@H](C)COC2` [Example 319, (10S,17E)-16-ethyl-8,10,14-trimethyl-2,8,10,11,13,14-hexahydro-3,5-etheno[1,4]dioxacyclopentadecino[10,11-c:15,14-c′:6,7-c″]tripyrazole], the IC50 came to 766 nM against EGFR WT; 1490 nM at EGFR (D770_N771insNPG); 218 nM against EGFR Δ746-750 mutant; 425 nM in [1]; 182 nM against EGFR L858R mutant; 24.7 nM on EGFR L858R/T790M mutant. Besides, the half-inhibitory concentration (IC50) in experiment [2] was found to be 60.5 nM; against ALK it was 5.05 nM.
On to `Cc1onc2c1/C=C/c1n[nH]c3ccc(cc13)-c1cnn(C)c1OCCOC2` [Example 320, (17E)-8,16-dimethyl-2,8,10,11-tetrahydro-13H-3,5-ethenodipyrazolo[3′,4′:10,11;4″,3″:14,15] [1,4]dioxacyclopentadecino[6,7-c][1,2]oxazole], for which the IC50 at ALK was determined as 32.2 nM; on CLK1, 0.324 nM; on CLK2 it was 69.7 nM; at CLK3, 0.2 nM; on CLK4, 0.155 nM.
Taken in the same sequence, the figures for `Cc1noc2c1/C=C/c1n[nH]c3ccc(cc13)-c1cnn(C)c1OCCOC2` [Example 321, (17E)-8,16-dimethyl-2,10,11,13-tetrahydro-8H-3,5-ethenodipyrazolo[3′,4′:10,11;4″,3″:14,15] [1,4]dioxacyclopentadecino[7,6-d][1,2]oxazole] were 20.8 nM, 1.35 nM, 418 nM, 1.92 nM and 0.847 nM.
For `Cc1snc2c1/C=C/c1n[nH]c3ccc(cc13)-c1cnn(C)c1OCCOC2` [Example 322, (17E)-8,16-dimethyl-2,8,10,11-tetrahydro-13H-3,5-ethenodipyrazolo[3′,4′:10,11;4″,3″:14,15] [1,4]dioxacyclopentadecino[6,7-c][1,2]thiazole], the IC50 against ALK stood at 59.9 nM; at CLK1, 1.04 nM; on CLK2, 34.9 nM; on CLK3, 0.322 nM; on CLK4 it was 0.636 nM.

Values taken from patent US20250353864A1, “INDAZOLE CONTAINING MACROCYCLES AND THEIR USE” (BLOSSOMHILL THERAPEUTICS, INC., priority 2022, published 2025).
